Data from US20230257383A1, “COMPOUND SERVING AS BTK INHIBITOR, PREPARATION METHOD THEREFOR, AND USE THEREOF” (CHENGDU HYPERWAY PHARMACEUTICALS CO., LTD., priority 2020, published 2023).
Read-outs that look alike come from different tables or passages of the source.

Key:
[1] = test system: BT474 cell proliferation; assay: In vitro cell proliferation inhibitory activity test (CTG), BT474; format: cell-based; conditions: Homo sapiens, BT-474, BT474 cell proliferation
Experimental: (§1) Test Example 4: In Vitro Cell Proliferation Inhibitory Activity Test
(§2) Cells were cultured in 1640 medium, added with 10% inactivated FBS and 1% double antibiotics, and cultured at 37° C. and 5% CO2.
(§3) (1) Cells were routinely cultured until the cell density was 80%-90%, and the cells were harvested when their number reached the requirement.
(§4) (2) Cells were resuspended with corresponding culture medium, counted, and prepared into cell suspension at appropriate density.
(§5) (3) The cell suspension was added to a 96-well plate, 100 μL per well.
(§6) (4) Cells were cultured overnight in a 37° C., 5% CO2 incubator.
(§7) (1) The compounds to be tested were diluted with DMSO to make a stock solution with a final concentration of 20 mM for later use.
(§8) (2) The stock solution was diluted 10 times from 20 mM to 2 mM with DMSO, and then diluted 3 times from 2 mM to 9 concentrations.
(§9) (3) The blank control wells were cells plus 0.5% DMSO, as high-reading control wells.
(§10) (4) Wells with no cells and only medium were used as low-reading control wells.
(§11) 4: Cell treatment with compound
(§12) (1) 24 h after the cells were plated, the compounds acted alone, and 99 μL of growth medium was added to each well, followed by 1 μL of the compound prepared in step 3. The plate was shaken gently to mix uniformly, and then placed in a 37° C., 5% CO2 incubator.
(§13) (2) The cell plate was placed in an incubator for 72 h.
(§14) 5: Detection by CTG method
(§15) (1) The cell plate to be tested was placed at room temperature for 30 min, and 100 μL of medium was discarded from each well.
(§16) (2) 100 μL of CTG reagent (CelltiterGlo kit) was added to each well, placed on a fast shaker for 2 min, and stood at room temperature in the dark for 30 min.
(§17) (3) The chemiluminescent signal value was read with the Envision instrument.
(§18) IC50 was calculated by using GraphPad Prism 8 software. The IC50 (half inhibitory concentration) of the compound was derived using the following nonlinear fitting formula, and the results are shown in the following table:
(§19) Y=Bottom+(Top−Bottom)/(1+10^((Log IC50−X)×HillSlope))
(§20) X: log value of compound concentration, Y: inhibition rate (% inhibition)
(§21) Inhibition rate (% inhibition)=(reading of high-reading control well-reading of compound well)/(reading of high-reading control well-reading of low-reading control well)×100

[2] = Blood-brain barrier permeability test, oral, SD rats; format: in vivo; conditions: rat, oral 10 mg/kg single dose; for concentration at 1 h / Kp at 1 h: time point 1 h; for concentration at 2 h / Kp at 2 h: time point 2 h; for concentration at 4 h / Kp at 4 h: time point 4 h
Experimental: Test Example 6: Blood-Brain Barrier Permeability Test
Each test compound was administered orally at a single dose of 10 mg/kg to SD rats for pharmacokinetic study. Each group included 9 rats. The test compound was dissolved in 5% DMSO+10% solutol+85% saline, vortexed for 1-2 min, and ultrasonicated for 5-10 min to prepare into a colorless, transparent and clear administration solution. Animals were fasted overnight before administration. 1 h, 2 h, and 4 h after administration, three SD rats were selected from each group to take about 0.2-0.3 mL of blood through their orbit. The blood sample was placed on ice once collected, and centrifuged to separate the plasma within 15 min (centrifugation conditions: 8000 rpm, 1 min, room temperature). The collected plasma was stored at −20° C. before analysis. Immediately after blood collection, the cerebrospinal fluid and brain tissue were collected. The cerebrospinal fluid was draw out by dural puncture with a micro-sampler syringe under direct vision. Namely, about 100 μl of cerebrospinal fluid was collected with a 100 μl micro sample syringe from the rat that was anesthetized by chloral hydrate, with the head-fixed, the back hair-cut off, a transverse incision (2 cm) made at the line connecting the roots of the two ears, and the muscle layer of the neck and skull base bluntly scraped to expose the foramen magnum. The cerebrospinal fluid was stored at −20° C. before analysis. The rat then was sacrificed immediately, with its head cut off. The dissected brain tissue, with the surface capillaries peeled off, was weighed, added with 3 times the amount of cold saline, homogenized by a homogenizer for 1 min, and stored at −20° C. before analysis. 20 μL of plasma sample and brain homogenate sample was respectively added into 200 μL of working internal standard solution (the same volume of vehicle was added to the blank instead of internal standard), vortexed for 1 min, and centrifuged at 13500 rpm for 10 min. 100 μL of the supernatant was taken and analyzed by LC-MS/MS. 20 μL of the cerebrospinal fluid was added into 60 μL of working internal standard solution (the same volume of vehicle, instead of internal standard, was added to the blank), vortexed for 1 min, and centrifuged at 13500 rpm for 10 min. 50 μL of the supernatant was taken and analyzed by LC-MS/MS.

[3] = test system: NCI-N87 cell proliferation; assay: In vitro cell proliferation inhibitory activity test (CTG), NCI-N87; format: cell-based; conditions: Homo sapiens
Experimental: as §1, §2, §3, §4, §5, §6, §7, §8, §9, §10, §11, §12, §13, §14, §15, §16, §17, §18, §19, §20, §21

[4] = target: HER2 kinase (Homo sapiens, UniProt P04626); assay: HER2 kinase activity test (HTRF); format: biochemical
Experimental: Test Example 5: HER2 Kinase Activity Test
1. Her2 Kinase test steps
2) 100 nl of the diluted compound working solution was transferred into each well of a reaction plate (784075, Greiner) by an Echo 550 liquid hander. The reaction plate was sealed with a sealing film and centrifuged at 1000 g for 1 min.
3) 1 ng/μL Her2 kinase solution was prepared with 1× kinase reaction buffer.
4) 5 μL of the kinase solution prepared above was added to each well of the reaction plate. The plate was sealed with a sealing film, centrifuged at 1000 g for 1 min, and placed at room temperature for 10 min.
5) A mixture of 2× kinase substrate and ATP was prepared by using 1× kinase reaction buffer, and the 2× Her2 kinase substrate was 2 μM TK-substrate-biotin and 4 μM ATP
6) 5 μL of the mixture of 2× TK-substrate-biotin and ATP was added to the reaction plate, centrifuged at 1000 g for 30 seconds to start the reaction.
7) Her2 kinase test was performed at room temperature for 50 min of reaction.
9) 10 μL of the mixture of Sa-XL 665 and TK-antibody-Cryptate was added to each well, centrifuged at 1000 g for 30 seconds, and reacted at room temperature for 1 h.
10) The fluorescence signals at 615 nm (Cryptate) and 665 nm (XL665) were read by Envision 2104.
1) The percentage inhibition was calculated as follows: […]
Ratiopositive control: average value of Ratio 665/615 nm of all positive control wells in the plate.
Rationegative control: average value of Ratio 665/615 nm of all negative control wells in the plate.
2) Calculation of IC50 and fitting of dose-effect curve of compound:
The IC50 of the compound was derived using the following nonlinear fitting formula with GraphPad 6.0.
Y=Bottom+(Top−Bottom)/(1+10^((Log IC50−X)×HillSlope)).
X: log value of compound concentration; Y: percentage inhibition of compound

[5] = brain, read-out: Drug concentration in brain tissue
[6] = brain/plasma, read-out: Brain tissue/plasma
[7] = cerebrospinal fluid, read-out: Drug concentration in cerebrospinal fluid
[8] = cerebrospinal fluid/plasma, read-out: Cerebrospinal fluid/plasma
[9] = plasma, read-out: Plasma drug concentration

HER2 kinase, sequence (P04626 23-1255): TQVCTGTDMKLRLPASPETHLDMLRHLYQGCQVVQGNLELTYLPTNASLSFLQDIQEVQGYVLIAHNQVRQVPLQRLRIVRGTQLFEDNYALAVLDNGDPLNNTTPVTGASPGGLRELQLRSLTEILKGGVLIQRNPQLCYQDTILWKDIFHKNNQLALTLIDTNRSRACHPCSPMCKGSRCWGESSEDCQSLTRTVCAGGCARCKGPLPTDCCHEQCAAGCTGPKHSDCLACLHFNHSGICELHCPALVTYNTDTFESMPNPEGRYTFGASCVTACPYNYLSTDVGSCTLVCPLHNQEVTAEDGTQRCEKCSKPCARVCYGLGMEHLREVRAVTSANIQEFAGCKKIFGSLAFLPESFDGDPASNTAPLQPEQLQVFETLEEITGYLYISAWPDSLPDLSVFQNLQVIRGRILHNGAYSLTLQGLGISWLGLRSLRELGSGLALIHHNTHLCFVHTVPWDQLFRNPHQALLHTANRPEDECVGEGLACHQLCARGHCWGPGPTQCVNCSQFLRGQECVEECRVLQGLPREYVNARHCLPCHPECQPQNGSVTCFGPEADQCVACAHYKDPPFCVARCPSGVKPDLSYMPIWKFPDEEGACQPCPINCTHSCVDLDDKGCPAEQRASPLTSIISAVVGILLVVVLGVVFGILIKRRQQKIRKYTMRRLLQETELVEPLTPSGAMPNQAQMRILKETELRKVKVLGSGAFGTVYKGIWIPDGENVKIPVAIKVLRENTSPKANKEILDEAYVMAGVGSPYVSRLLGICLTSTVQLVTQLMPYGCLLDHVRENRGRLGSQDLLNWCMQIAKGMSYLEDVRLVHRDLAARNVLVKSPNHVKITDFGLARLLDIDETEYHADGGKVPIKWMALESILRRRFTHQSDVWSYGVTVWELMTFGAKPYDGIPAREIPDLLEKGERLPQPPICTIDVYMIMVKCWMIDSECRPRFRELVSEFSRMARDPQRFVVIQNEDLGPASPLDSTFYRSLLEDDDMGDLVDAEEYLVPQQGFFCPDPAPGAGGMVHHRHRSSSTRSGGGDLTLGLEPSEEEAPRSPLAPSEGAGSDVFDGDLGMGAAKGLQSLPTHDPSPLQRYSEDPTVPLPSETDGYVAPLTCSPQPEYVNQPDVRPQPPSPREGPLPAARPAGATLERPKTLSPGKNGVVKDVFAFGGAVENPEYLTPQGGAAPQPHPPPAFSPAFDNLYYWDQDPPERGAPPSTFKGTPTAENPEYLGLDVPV

SMILES	IC50 [1]	concentration at 1 h [2, 5]	concentration at 2 h [2, 5]	concentration at 4 h [2, 5]	Kp at 1 h [2, 6]	Kp at 2 h [2, 6]	Kp at 4 h [2, 6]	concentration at 1 h [2, 7]	concentration at 2 h [2, 7]	concentration at 4 h [2, 7]	Kp at 1 h [2, 8]	Kp at 2 h [2, 8]	Kp at 4 h [2, 8]	concentration at 1 h [2, 9]	concentration at 2 h [2, 9]	concentration at 4 h [2, 9]	IC50 [3]	IC50 [4]
Nc1nccn2c(C3CCC(CO)OC3)nc(-c3ccc(C(F)(F)c4ccccc4)cc3)c12 (single isomer, unassigned) [Example 111-P1]	1550 nM	1250 ng/g	1070 ng/g	787 ng/g	0.62	0.67	0.59	66.2 ng/mL	52.3 ng/mL	41.9 ng/mL	0.033	0.033	0.031	2010 ng/mL	1580 ng/mL	1340 ng/mL		
Nc1nccn2c(C34CCC(CO)(CC3)OC4)nc(-c3ccc(C(F)(F)c4ccccc4)cc3)c12 [Example 125]	340 nM	1340 ng/g	1170 ng/g	1060 ng/g	0.91	1.03	0.84	34.1 ng/mL	30.4 ng/mL	29.6 ng/mL	0.023	0.027	0.024	1470 ng/mL	1130 ng/mL	1260 ng/mL		
Nc1nccn2c(C34CCC(CO)(CC3)OC4)nc(-c3ccc(C(F)(F)c4ccccc4F)cc3)c12 [Example 145]	40.9 nM	643 ng/g		910 ng/g	0.39		0.53	59.7 ng/mL		74.3 ng/mL	0.036		0.044	1650 ng/mL		1710 ng/mL	37.5 nM	1.69 nM
Nc1nccn2c(C34CCC(CO)(CC3)OC4)nc(-c3ccc(C(F)(F)c4cccc(Cl)c4F)cc3)c12 [Example 152]	65.5 nM	288 ng/g	378 ng/g	232 ng/g	0.27	0.39	0.32	187 ng/mL	227 ng/mL	181 ng/mL	0.18	0.24	0.25	1060 ng/mL	961 ng/mL	715 ng/mL	43.4 nM	4.19 nM
Nc1nccn2c(C34CCC(CO)(CC3)OC4)nc(-c3ccc(C(F)(F)c4ccccc4Cl)cc3)c12 [Example 155]	46.4 nM	1520 ng/g	1860 ng/g	1260 ng/g	1.21	1.3	1.19	292 ng/mL	374 ng/mL	220 ng/mL	0.23	0.26	0.21	1250 ng/mL	1430 ng/mL	1060 ng/mL		9.44 nM
Cc1cc(Nc2ncnc3ccc(NC4=NC(C)(C)CO4)cc23)ccc1Oc1ccn2ncnc2c1 [Tucatinib, reference compound]	30.2 nM	26.5 ng/g	29.5 ng/g	24.5 ng/g	0.013	0.015	0.013	19.2 ng/mL	10.4 ng/mL	14.9 ng/mL	0.009	0.005	0.008	2030 ng/mL	1940 ng/mL	1900 ng/mL	26 nM	3 nM
